For assay [1], the target named is PPARγ (Homo sapiens (Human), UniProt P37231). The assay can be described thus: PPARγ activating action (luciferase reporter in PPARγ:RXRα:4ERPP/CHO-K1 cells). It counts as cell-based. Conditions: CHO-K1, 24 h; test compound 1 μM; luciferase activity relative to control compound X (1 μM) = 100%, non-administration group = 0%; read-out: PPARγ activating action (activation % (1 μM)). In outline:
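Stably transfected CHO-K1 cells carrying PPARγ:RXRα and a 4ERPP luciferase reporter, selected with Geneticin and Zeocin, were exposed to compound for 1 day at 37 °C. The medium was Ham's F12 with 0.1% fatty acid-free BSA. Luciferase activity was then measured as the read-out.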
For orientation: Reporter assays use an easily measured gene product as a stand-in for the process of interest.

Assay [2] addresses AT1 receptor (Homo sapiens (Human), UniProt P30556). The assay can be described thus: AT1 receptor binding inhibitory action.

AT1 receptor, sequence (P30556 whole entry): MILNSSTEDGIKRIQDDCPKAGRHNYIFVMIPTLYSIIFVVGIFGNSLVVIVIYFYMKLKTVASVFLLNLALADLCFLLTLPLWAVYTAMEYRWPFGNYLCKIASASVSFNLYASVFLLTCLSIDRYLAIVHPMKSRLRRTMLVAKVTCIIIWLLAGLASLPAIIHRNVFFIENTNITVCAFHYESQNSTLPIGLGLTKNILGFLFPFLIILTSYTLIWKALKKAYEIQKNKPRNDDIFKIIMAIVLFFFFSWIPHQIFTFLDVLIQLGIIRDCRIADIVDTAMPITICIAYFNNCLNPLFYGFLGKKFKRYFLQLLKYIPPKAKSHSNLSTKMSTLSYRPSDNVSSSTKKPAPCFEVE
PPARγ, sequence (P37231 29-505): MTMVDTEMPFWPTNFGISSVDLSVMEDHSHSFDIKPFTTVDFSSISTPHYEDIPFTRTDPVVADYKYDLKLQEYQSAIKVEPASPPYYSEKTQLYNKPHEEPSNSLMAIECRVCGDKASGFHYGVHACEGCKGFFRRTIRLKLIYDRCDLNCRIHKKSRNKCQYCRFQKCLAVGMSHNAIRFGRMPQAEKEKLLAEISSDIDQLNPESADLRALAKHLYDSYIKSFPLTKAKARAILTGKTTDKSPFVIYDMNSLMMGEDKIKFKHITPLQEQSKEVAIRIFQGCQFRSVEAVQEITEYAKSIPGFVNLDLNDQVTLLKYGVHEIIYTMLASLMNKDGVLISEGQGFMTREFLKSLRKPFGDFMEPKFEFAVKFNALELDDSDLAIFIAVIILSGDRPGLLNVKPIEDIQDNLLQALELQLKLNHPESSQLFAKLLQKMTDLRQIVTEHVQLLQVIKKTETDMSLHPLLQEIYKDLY
PPARγ, sequence (P19793 whole entry partner): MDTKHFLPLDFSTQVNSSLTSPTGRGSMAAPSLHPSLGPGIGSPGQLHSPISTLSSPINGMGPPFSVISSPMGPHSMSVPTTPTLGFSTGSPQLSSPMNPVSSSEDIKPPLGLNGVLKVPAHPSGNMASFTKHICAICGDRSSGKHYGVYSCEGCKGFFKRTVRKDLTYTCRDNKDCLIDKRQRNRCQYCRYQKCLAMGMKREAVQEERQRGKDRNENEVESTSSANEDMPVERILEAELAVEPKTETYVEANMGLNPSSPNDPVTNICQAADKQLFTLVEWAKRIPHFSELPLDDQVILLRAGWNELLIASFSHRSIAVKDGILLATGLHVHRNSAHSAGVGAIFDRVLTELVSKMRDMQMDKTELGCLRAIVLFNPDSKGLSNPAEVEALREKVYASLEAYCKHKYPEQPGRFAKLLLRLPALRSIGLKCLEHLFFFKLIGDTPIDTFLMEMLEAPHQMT

The IC50 is the concentration at which inhibition is half-maximal. A higher IC50 goes with weaker potency. As to `COc1cc(F)ccc1C(=O)Cn1c(=O)c2cc(C3CC3)sc2n(Cc2ccc(-c3ccccc3-c3noc(=O)[nH]3)cc2)c1=O` [Ex. 130, 6-cyclopropyl-3-[2-(4-fluoro-2-methoxyphenyl)-2-oxoethyl]-1-{[2′-(5-oxo-4,5-dihydro-1,2,4-oxadiazol-3-yl)biphenyl-4-yl]methyl}thieno[2,3-d]pyrimidine-2,4(1H,3H)-dione], the activation at 1 µM in assay [1] was found to be 56%. In assay [2], the IC50 was 1.6 nM.

In the case of `CCc1cc2c(=O)n(CC3(O)CCOCC3)c(=O)n(Cc3ccc(-c4ccccc4-c4noc(=O)[nH]4)cc3)c2s1` [Ex. 145, 6-ethyl-3-[(4-hydroxytetrahydro-2H-pyran-4-yl)methyl]-1-{[2′-(5-oxo-4,5-dihydro-1,2,4-oxadiazol-3-yl)biphenyl-4-yl]methyl}thieno[2,3-d]pyrimidine-2,4(1H,3H)-dione], the activation at 1 µM in assay [1] was determined as 36%. The IC50 in assay [2] was found to be 1.7 nM.

For `CCc1cc2c(=O)n(-c3ccc4c(c3)CC(C)(C)O4)c(=O)n(Cc3ccc(-c4ccccc4-c4noc(=O)[nH]4)cc3F)c2s1` [Ex. 181, 3-(2,2-dimethyl-2,3-dihydro-1-benzofuran-5-yl)-6-ethyl-1-{[3-fluoro-2′-(5-oxo-4,5-dihydro-1,2,4-oxadiazol-3-yl)biphenyl-4-yl]methyl}thieno[2,3-d]pyrimidine-2,4(1H,3H)-dione], in assay [1], the activation at 1 µM came out at 55%. In addition, the IC50 in assay [2] worked out at 1.2 nM.

In the case of `CCc1cc2c(=O)n(CC(=NOC(C)C)c3ccc(OC)cc3)c(=O)n(Cc3ccc(-c4ccccc4-c4noc(=O)[nH]4)cc3)c2s1` [Ex. 213, 6-ethyl-3-[2-(isopropoxyimino)-2-(4-methoxyphenyl)ethyl]-1-{[2′-(5-oxo-4,5-dihydro-1,2,4-oxadiazol-3-yl)biphenyl-4-yl]methyl}thieno[2,3-d]pyrimidine-2,4(1H,3H)-dione], the activation at 1 µM in assay [1] came out at 49%. The IC50 in assay [2] worked out at 2 nM.

With `C=CCON=C(Cn1c(=O)c2cc(CC)sc2n(Cc2ccc(-c3ccccc3-c3noc(=O)[nH]3)cc2)c1=O)c1ccc(OC)cc1` [Ex. 214, 3-[2-[(allyloxy)imino]-2-(4-methoxyphenyl)ethyl]-6-ethyl-1-{[2′-(5-oxo-4,5-dihydro-1,2,4-oxadiazol-3-yl)biphenyl-4-yl]methyl}thieno[2,3-d]pyrimidine-2,4(1H,3H)-dione], the activation at 1 µM in assay [1] came to 41%. In assay [2], this compound registered an IC50 of 1.8 nM.

Turning to `CCc1cc2c(=O)n(CC(C)(C)c3ccccc3)c(=O)n(Cc3ccc(-c4ccccc4-c4noc(=O)[nH]4)cc3)c2s1` [Ex. 225, 6-ethyl-3-(2-methyl-2-phenylpropyl)-1-{[2′-(5-oxo-4,5-dihydro-1,2,4-oxadiazol-3-yl)biphenyl-4-yl]methyl}thieno[2,3-d]pyrimidine-2,4(1H,3H)-dione], the activation at 1 µM in assay [1] is 39%. The IC50 in assay [2] turned out to be 1.6 nM.

As to `CCc1cc2c(=O)n(CC(OC(C)=O)c3ccc(OC)cc3)c(=O)n(Cc3ccc(-c4ccccc4-c4noc(=O)[nH]4)cc3F)c2s1` (stereo not shown) [Ex. 153, 2-[6-ethyl-1-{[3-fluoro-2′-(5-oxo-4,5-dihydro-1,2,4-oxadiazol-3-yl)biphenyl-4-yl]methyl}-2,4-dioxo-1,4-dihydrothieno[2,3-d]pyrimidin-3(2H)-yl]-1-(4-methoxyphenyl)ethyl acetate], the activation at 1 µM in assay [1] stood at 39%. This compound also registered an IC50 in assay [2] of 1.3 nM.

With `CCc1cc2c(=O)n(CC(=O)c3ccc(OC)cc3C)c(=O)n(Cc3ccc(-c4ccccc4-c4noc(=O)[nH]4)cc3)c2s1` [Ex. 76, 6-ethyl-3-[2-(4-methoxy-2-methylphenyl)-2-oxoethyl]-1-{[2′-(5-oxo-4,5-dihydro-1,2,4-oxadiazol-3-yl)biphenyl-4-yl]methyl}thieno[2,3-d]pyrimidine-2,4(1H,3H)-dione], the activation at 1 µM in assay [1] stood at 27%. In assay [2], this compound returned an IC50 of 1 nM.

(Values after patent US8501750B2, “Heterocyclic compound and use thereof” (Takeda Pharmaceutical Company Limited, priority 2007, dated 2013).)
